For one molecule, ATP production results are on record in patent US20070286886A1, “Materials And Methods For Inducing Apoptosis In Adipocytes” (University of Tennessee Research Foundation, priority 2004, published 2007).

The test system of the assay is 3T3-L1 and UCP2-transfected 3T3-L1 cells. Put plainly: ATP production (microplate luminometer) in adipocytes. Format: cell-based. The settings on record: 4 h. Here is the method:
Adipocytes were incubated with adipocyte medium for 4 h with or without 1α,25-(OH)2-D3. ATP levels were measured using ENLITEN Total ATP Rapid Biocontamination Detection Kit (Promega, Madison, […].) according to the manufacturer's instructions. Cellular ATP was extracted as described previously and measured using a microplate luminometer (Labsystem, Helsinki, Finland). The integration time of the luminometer was set at 1 s with normal gain. Measurement of cytosolic Ca^2+ ([Ca^2+]c) and mitochondrial calcium([Ca^2+]m)

With `C=C1/C(=C\C=C2/CCC[C@]3(C)[C@@H]([C@H](C)CCCC(C)(C)O)CC[C@@H]23)C[C@@H](O)C[C@@H]1O` [1α,25-(OH)2-D3, 1α,25-dihydroxyvitamin D3], the ATP production entry runs as follows: (high dose (100 nM), P<0.05) “inhibited”; (low dose, P<0.01) “markedly increased”.
